Data published in US20260076937A1, “COMPOSITION FOR PREVENTING OR TREATING AUTOIMMUNE DISEASES COMPRISING A BCAT1 INHIBITOR” (Seoul National University R&DB Foundation, priority 2024, published 2026).
Entries after “also recorded” stand apart in the source; their conditions may differ. Where two headings read alike, the source gives them in different places. Residues, ends and D or L forms follow the SMILES beside them. *: point of attachment. Cbz = O=C(OCc1ccccc1)*

Legend:
[1] = tested on: TCR-stimulated human CD4+ T cells; assay: 3H-leucine uptake assay; type: cell-based; details: BCH 50 mM, JPH203 10 μM, LβhL 400 mg/L
Procedure: After the culture medium was removed, the cells were cultured in HBSS for 10 minutes. ^3H-leucine or ^3H-methionine (Perkin Elmer, Waltham, MA) uptake assays were initiated by culturing cells for 15 min in HBSS with 0.5-1 μCi. Cells were separated with 1 M NaOH after three washes with ice-cold HBSS. Radioactivity was measured using a beta scintillation counter MicroBeta® (Perkin Elmer).

HIF-1α [2] = assay: HIF-1α immunoblot in TCR-stimulated CD4+ memory T cells; type: cell-based, human; details: for HIF-1α expression reduced by Bi2 (effect of added substance): Bi2 plus HMB 0.4 mM, CoCl2, VH298 or MG132; for HIF-1α protein expression: TCR-stimulated CD4+ memory T cells, Bi2 10 μM, CoCl2 100 μM, VH298 100 μM, MG132 5 μM
Procedure: (§1) Cells were cultured in radioimmunoprecipitation assay (RIPA) buffer (150 mM NaCl, 10 mM Na2HPO4, pH 7.2, 1% Nonidet P-40, 0.5% deoxycholate) containing phenylmethylsulfonyl fluoride (PMSF; Millipore Sigma, Burlington, MA), EDTA, protease and phosphatase inhibitor cocktail (Thermo Fisher Scientific) to extract total protein. Proteins were separated on 8-10% SDS-polyacrylamide gels and blotted onto polyvinylidene difluoride (PVDF) membranes (Bio-Rad, Hercules, CA) followed by 5% BSA in Tris buffered saline (TBS) with 0.1% Tween 20 and blocked for 1 hour. Membranes were cultured overnight with anti-human SLC7A5, anti-BCAT, anti-phospho-p70S6K, anti-p70S6K, anti-HIF-1α (all provided by Cell Signaling Technology, Danvers, MA) primary antibodies at 4° C., followed by culture with HRP-conjugated secondary antibodies for 1 hour at room temperature. Membranes were developed using SuperSignal West Femto Maximum Sensitivity Substrate or SuperSignal West Pico PLUS Chemiluminescent Substrate system (Thermo Fisher Scientific).

HIF-1α [3] = assay: RT-qPCR of HIF-1α and HIF-1α target genes in CD4+ memory T cells; type: cell-based, human; details: HMB 0.4 mM
Procedure: Total RNA was prepared using TRIzol reagent (Life Technologies, Grand Island, NY), followed by cDNA synthesis (Promega, Madison, WI), followed by real-time quantitative RT-PCR with a CFX system (Bio-Rad, Hercules, CA) using SensiFAST SYBR® Lo-ROX (Bioline, London. UK). Gene expression levels were normalized for […] expression using the comparative CT method (ΔΔCT).

[4] = tested on: human CD4+ memory T cells; assay: Cholesterol analysis in cell lysates; type: cell-based; details: Bi2 10 μM plus HMB 0.4 mM
Procedure: Total cholesterol amount in cultured cells was determined using a fluorometric Amplex™ Red Cholesterol Assay Kit (Thermo Fisher Scientific) according to the manufacturer's instructions.

[5] = tested on: TCR-stimulated human CD4+ memory T cells; assay: Cytokine ELISA of culture supernatants, CD4+ memory T cells; type: cell-based; details: for IFN-γ production by CD4+ memory T cells / IL-17A production by CD4+ memory T cells: TCR stimulation 3 days, Bi2 10 μM, JPH203 10 μM, LβhL 400 mg/L; for IFN-γ production by CD4+ memory T cells: HMB 0.4 mM, VH298 100 nM; for IL-17A production by CD4+ memory T cells: statin 10 μM
Procedure: The study protocol was reviewed and approved by the Institutional Review Board (IRB) of Seoul National University Hospital. Peripheral blood was drawn from healthy controls (HC) after obtaining written consent from study participants, and all experiments were performed according to approved guidelines. Peripheral blood mononuclear cells (PBMCs) were isolated from peripheral blood using density gradient centrifugation (Biocoll separation solution; BIOCHROM Inc., Cambridge, UK). Total CD4^+ T cells, naive T cells and memory CD4^+ T-cells were isolated in a negative selection manner from CD14^+ monocyte depleted PBMCs using the MojoSort™ Human Total CD4^+ T-Cells, CD4^+ naive T-cells and CD4^+ memory T-cell isolation kit (BioLegend, San Diego, Calif.). Purified T cells were cultured in RPMI 1640 medium (hereinafter, “complete RPMI 1640”) supplemented with 10% fetal bovine serum (FBS), 1% penicillin/streptomycin, and 1% L-glutamine. Cells were stimulated with anti-CD3/CD28-coated microbeads (1:10 ratio, Dynabeads T-Activator CD3/CD28, Thermo Fisher Scientific, Waltham, MA) in the presence of designated chemical inhibitors or reagents including 2-amino-2-norbornanecarboxylic acid (BCH), JPH203, acetate, MG132, VH298, cobalt chloride (CoCl2), cycloheximid (CHX) (all provided by Sigma-Aldrich, St. Louis, MO), BCAT1 inhibitor 2 (Bi2: provided by Cayman Chemical, Ann Arbor, MI), 3-hydroxy-3-methylbutyric acid (HMB; provided by Thermo Fisher Scientific, Waltham, MA), and L-β-homoleucine (LβhL; provided by Santa Cruz Biotechnology, Heidelberg, Germany). In some experiments, a customized medium depleted of five essential amino acids (leucine, valine, isoleucine, phenylalanine, methionine) was used (Welgene, Gyeongsan, South Korea). All amino acids used (L-leucine, L-valine, L-isoleucine, L-phenylalanine, L-methionine) were purchased from Sigma-Aldrich.
IL-17A and IFN-γ amounts in culture supernatants were quantified using commercially available human ELISA kits (IL-17A ELISA kit by eBioscience and human IFN-γ ELISA MAX Deluxe by BioLegend) according to the manufacturer's instructions. Light density was measured using an Infinite M200 instrument (Tecan, Männedorf, Switzerland).

[6] = oral administration, healthy adults; cited from earlier work
mTORC1 = assay: Phospho-p70-S6K immunoblot (mTORC1 activity) in CD4+ memory T cells; type: cell-based, human; details: HMB 0.4 mM, TCR stimulation 1 hour
Procedure: as §1

[7] = tested on: TCR-stimulated human CD4+ naive T cells; assay: Cytokine ELISA of culture supernatants, CD4+ naive T cells; type: cell-based; details: TCR stimulation 3 days
[8] = tested on: human CD4+ naive and memory T cells; assay: CFSE dilution proliferation assay; type: cell-based; details: anti-CD3/CD28 microbeads; Bi2 10 μM, JPH203 10 μM, LβhL 400 mg/L
Procedure: To analyze T cell proliferative capacity, purified isolated human CD4+ T cells were labeled with 1 μM carboxyfluorescein succinimidyl ester (CFSE; Invitrogen, Waltham, MA, USA) and then stimulated with anti-CD3/CD28 antibody coated microbeads for 4 days at 37° C. Cells were stained with 7AAD (BD Biosciences) for 10 minutes to distinguish dead cells and the extent of CFSE dilution in 7AAD-cells was measured by BD LSRFortessa to analyze proliferative capacity. Antibodies listed in Table 2 and previously known BD LSRFortessa cell analyzers were used.

EAE mice = assay: Experimental autoimmune encephalomyelitis (EAE) model; type: in vivo, mouse
[9] = Bi2 10 μM plus acetate, HMB or VH298, 3 days
[10] = Bi2 10 mg/kg or LβhL 1 g/kg i.p.

## NC1(C(=O)O)CC2CCC1C2 (centres unmarked) [BCH, 2-amino-2-norbornanecarboxylic acid]
[1]
  3H-leucine uptake: greatly reduced

## [Cl][Co][Cl] [CoCl2, cobalt chloride]
HIF-1α [2]
  HIF-1α expression reduced by Bi2 (effect of added substance): none of these inhibitors affected
  HIF-1α protein expression: accumulation of HIF-1α

## CC(C)(O)CC(=O)O [HMB, 3-hydroxy-3-methylbutyric acid]
HIF-1α [2]; 24 h Bi2 pretreatment, cycloheximide chase, with or without HMB
  HIF-1α degradation rate: did not affect
HIF-1α [2]
  HIF-1α expression reduced by Bi2 (effect of added substance): abrogates this attenuation; also recorded: reversed; also recorded: increased
HIF-1α [3]
  Bi2-reduced HIF-1α mRNA (effect of HMB supplementation): rapidly abolished
HIF-1α [3]; 72 hours of TCR stimulation
  Bi2-reduced SCL2A1, LDHA and PGK1 mRNA (effect of HMB supplementation): eliminated
[4]
  cholesterol in Bi2-treated cells (effect of HMB supplementation): inhibited; also recorded: decreased
[5]; [9]
  IL-17A production in Bi2-treated CD4+ memory T cells (effect of added substance): partially reversed; also recorded: resolved
[5]
  IFN-γ production by CD4+ memory T cells: not affected; also recorded: did not affect
[6]
  plasma half-life: about 2.5 hours
  plasma level achievable: 400 µM
  time to peak plasma level: 60 to 120 min
mTORC1
  inhibition of mTORC1 activity by Bi2 (effect of HMB supplementation): time dependently counteracted

## Nc1cc(COc2c(Cl)cc(C[C@H](N)C(=O)O)cc2Cl)c2oc(-c3ccccc3)nc2c1 [JPH203]
[1]
  3H-leucine uptake: greatly reduced
[7]
  IL-2 production by CD4+ naive T cells: not affected
[8]
  proliferation (CFSE dilution): completely blocked
[5]
  IFN-γ production by CD4+ memory T cells: decreased significantly
  IL-17A production by CD4+ memory T cells: decreased significantly

## CC(C)C[C@H](N)CC(=O)O [LβhL, L-β-homoleucine]
EAE mice; [10]
  CD4+ T-cells producing IL-17A in spinal cord infiltrates and draining LN: significantly reduced
  HIF-1α expression in CD4+ T-cells of spinal cord (intracellular staining): decreased
  cell infiltration in spinal cord: significantly lower
  nerve damage, spinal cord histology: significantly lower
EAE mice; i.p. three times a week for 14 days, Bi2 10 mg/kg, LβhL 1 g/kg
  EAE clinical score / severity: attenuated; also recorded: improves EAE induction
[1]
  3H-leucine uptake: competitively inhibited
[8]
  proliferation (CFSE dilution): did not affect
[5]
  IL-17A production by CD4+ memory T cells: preferentially reduced; also recorded: attenuates

## CC(C)C[C@@H](C=O)NC(=O)[C@H](CC(C)C)NC(=O)[C@H](CC(C)C)NC(=O)OCc1ccccc1 [MG132] (Cbz-Leu-Leu-Leu-aldehyde)
HIF-1α [2]
  HIF-1α expression reduced by Bi2 (effect of added substance): none of these inhibitors affected
  HIF-1α protein expression: accumulation of HIF-1α

## Cc1ncsc1-c1ccc(CNC(=O)[C@@H]2C[C@@H](O)CN2C(=O)[C@@H](NC(=O)C2(C#N)CC2)C(C)(C)C)cc1 [VH298]
HIF-1α [2]
  HIF-1α expression reduced by Bi2 (effect of added substance): none of these inhibitors affected
  HIF-1α protein expression: accumulation of HIF-1α
[5]
  IL-17A production in Bi2-treated CD4+ memory T cells (effect of added substance): restores; also recorded: fully restored
  IFN-γ production by CD4+ memory T cells: did not affect

## CC(=O)O [acetate]
[5]; [9]
  IL-17A production in Bi2-treated CD4+ memory T cells (effect of added substance): dose-dependently reduced
[5]; Bi2 10 μM plus acetate, 3 days
  IFN-γ production in Bi2-treated CD4+ memory T cells (effect of added substance): upregulated
